Results taken from patent US11786517B2, “Methods of treatment using a JAK inhibitor compound” (THERAVANCE BIOPHARMA R&D IP, LLC, priority 2017, dated 2023).

Tests used:
BALF eosinophils = assay: Murine model of Alternaria alternata-induced eosinophilic inflammation of the lung; type: in vivo, C57 mice; settings: mouse, oropharyngeal aspiration 0.1-1.0 mg/mL, forty-eight hours after alternaria challenge
Procedure: Airway eosinophilia is a hallmark of human asthma. Alternaria alternata is a fungal aeroallergen that can exacerbate asthma in humans and induces eosinophilic inflammation in the lungs of mice (Havaux et al. Clin Exp Immunol. 2005, 139(2):179-88).
Seven- to nine-week old male C57 mice from Taconic were used in the study. On the day of study, animals were lightly anesthetized with isoflurane and administered either vehicle or test compound (0.1-1.0 mg/mL, 50 μL total volume over several breaths) via oropharyngeal aspiration. Animals were placed in lateral recumbency post dose and monitored for full recovery from anesthesia before being returned to their home cage. One hour later, animals were once again briefly anesthetized and challenged with either vehicle or alternaria extract (200 ug total extract delivered, 50 μL total volume) via oropharyngeal aspiration before being monitored for recovery from anesthesia and returned to their home cage. Forty-eight hours after alternaria administration, bronchoalveolar lavage fluid (BALF) was collected and eosinophils were counted in the BALF using the Advia 120 Hematology System (Siemens).
Activity in the model is evidenced by a decrease in the level of eosinophils present in the BALF of treated animals at forty-eight hours compared to the vehicle treated, alternaria challenged control animals. […]

[1] = test system: IFNγ induced CXCL10 secretion; assay: Inhibition of IFNγ induced CXCL10 in human 3D airway cultures; type: cell-based; settings: at μM (so in the source), 8 days, ±STDV
Procedure: EpiAirway tissue cultures were obtained from Mattek (AIR-100). Cultures were derived from asthmatic donors. In a cell culture insert, human derived tracheal/bronchial epithelial cells were grown and differentiated on a porous membrane support, allowing an air-liquid interface with warmed culture medium below the cells and a gaseous test atmosphere above. Tissues were cultured in maintenance media (Mattek, AIR-100-MM) in a 37° C., 5% CO2 humidified incubator. Four donors were tested. On Day 0, tissue cultures were treated with test compounds at 10 μM, 1 μM and/or 0.1 μM. Compounds were diluted in dimethyl sulfoxide (DMSO, Sigma) to a final concentration of 0.1%. DMSO at 0.1% was used as a vehicle control. Test compounds were incubated with cultures for 1 hour at 37° C., 5% CO2, followed by the addition of pre-warmed media containing IFNγ (R&D Systems) or IL-27 (R&D Systems) at a final concentration at 100 ng/ml. Tissue cultures were maintained for 8 days. Media was replaced every 2 days with fresh media containing compounds and IFNγ or IL-27. On Day 8, tissue cultures and supernatants were collected for analysis. […] Data is expressed as % Inhibition+/−standard deviation (±STDV). Percent inhibition was determined by compound inhibitory potency against IFNγ or IL-27 induced CXCL10 or CXCL9 secretion compared to vehicle treated cells. […]

[2] = test system: IFNγ induced IP-10 protein levels; assay: Pharmacodynamic assay: inhibition of IFNγ-induced IP-10 in rabbits; type: in vivo, New Zealand White rabbits
Procedure: The ability of a single intravitreal administration of test compound to inhibit interferon-gamma (IFNγ) induced IP-10 protein levels was measured in rabbit vitreous and retina/choroid tissues.
Solution formulations at concentrations of 1 mg/mL and 4 mg/mL of compound 1 of Example 1 were prepared as in Assay 8. A suspension formulation was prepared by combining crystalline compound 1 of Example 1 with 0.5% hydroxypropyl methylcellulose (HPMC E5), 0.02% Tween 80, and 9 mg/mL sodium chloride in purified water to attain a target concentration of 20 mg/mL.
Male, New Zealand White rabbits (Liveon Biolabs, India) were used for the studies. Animals were acclimated after arrival at the research facilities (Jubilant Biosys Ltd., India). Each rabbit was given a total of two intravitreal (IVT) injections with a total dose volume of 50 μL per eye. The first IVT injection (45 μL per eye) delivered test compound or vehicle at a prescribed time point (i.e. 24 hours for the solution formulations or 1 week for the suspension formulation). The second IVT injection (5 μL per eye) delivered IFNγ (1 μg/eye; Stock solution 1 mg/mL; Kingfisher Biotech) or vehicle for the induction of IP-10. In brief, on the day of the injections, rabbits were anesthetized with an intramuscular injection of ketamine (35 mg/kg) and xylazine (5 mg/kg). Once deeply anesthetized, each eye was rinsed with sterile saline and IVT injections were performed using a 0.5 mL insulin syringe (50 units=0.5 mL) with a 31-gauge needle at the supra-nasal side of the both eyes by marking the position with a Braunstein fixed caliper (2¾″) 3.5 mm from the rectus muscle and 4 mm from the limbus.
Tissues were collected 24 hours after the second IVT injection with IFNγ. Vitreous humor (VH) and retina/choroid tissues (R/C) were collected and homogenized, and IP-10 protein levels were measured using a rabbit CXCL10 (IP-10) ELISA kit (Kingfisher Biotech). The percent inhibition of IFNγ-induced IP-10 was calculated in comparison to the vehicle/vehicle and vehicle/IFNγ groups.

For `CCc1cc(O)c(F)cc1-c1ccc2c(-c3nc4c([nH]3)CCN(C3CCN(C)CC3)C4)n[nH]c2c1` [compound 1, 5-ethyl-2-fluoro-4-(3-(5-(1-methylpiperidin-4-yl)-4,5,6,7-tetrahydro-1H-imidazo[4,5-c]pyridin-2-yl)-1H-indazol-6-yl)phenol], the “inhibition of BALF eosinophil counts” value (BALF eosinophils) was “about 88%”, the “inhibition of IFNγ induced CXCL10 secretion” value [1] was 71%±19 and the “inhibition of IFNγ-induced IP-10” value ([2]; rabbit retina/choroid tissue, 45 μg solution, 24 hour pre-treatment) was 86. The “inhibition of IFNγ-induced IP-10” value ([2]; rabbit retina/choroid tissue, 180 μg solution, 24 hour pre-treatment) was 100%, the “inhibition of IFNγ-induced IP-10” value ([2]; rabbit retina/choroid tissue, crystalline suspension 20 mg/mL, 1 week pre-treatment) was 100% and the “inhibition of IFNγ-induced IP-10” value ([2]; rabbit vitreous humor, 45 μg solution, 24 hour pre-treatment) was 70%. The “inhibition of IFNγ-induced IP-10” value ([2]; rabbit vitreous humor, 180 μg solution, 24 hour pre-treatment) was 91% and the “inhibition of IFNγ-induced IP-10” value ([2]; rabbit vitreous humor, crystalline suspension 20 mg/mL, 1 week pre-treatment) was 100%.
